Results on 11 molecules are retold here after article PMC4690855 (Viruses, 2015).

A word on the IC50: it is the concentration that inhibits the measured activity by half. As usually defined, the Ki is the dissociation constant of the complex between target and ligand, obtained from inhibition or displacement.

Several values for one entry are separate records, joined by “and”; a condition that tells them apart may be missing. Identical values can stand only once. Entries after “also recorded” stand apart in the source; their conditions may differ. Counter-ions that a name gives are not always drawn. Like-named read-outs stand apart in the source and are kept apart here.

One test has as its target wild-type HIV-2 protease (Human immunodeficiency virus type 2 subtype A, UniProt P04584). The test is described as follows: In vitro enzymatic (HPLC) inhibition assay, wild-type protease. Format: biochemical.
Test [1] concerns the target T1, double mutant (I54M, L90M) HIV-2 protease (Human immunodeficiency virus type 2 subtype A, UniProt P04584, I567M/L603M).
T1 sequence (P04584 514-612 I567M/L603M): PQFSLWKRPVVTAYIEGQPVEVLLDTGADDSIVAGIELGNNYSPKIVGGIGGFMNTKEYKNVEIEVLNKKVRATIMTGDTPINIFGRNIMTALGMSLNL
The experiment in a line: In vitro enzymatic (HPLC) inhibition assay, double mutant protease. The test is classed as biochemical.

Test [2] has as its system double mutant (I54M, L90M) HIV-2 protease. The description is as above. Format: biochemical. Particulars: for Fold Increase (Ki): Ki double mutant versus wild-type.
Test [3] deals with HIV-2 vectors harboring the double mutation (I54M, L90M). The experiment in a line: Cell culture inhibition profiling, HIV-2 vector harboring the double mutation. Format: cell-based. The note with it: for IC50: transfected 293T cells, 3 days, RT activity in medium, triplicate, mean ± SD, read-out: IC50 Double Mutant (I54M, L90M) (cell culture); for Fold Increase (IC50, cell culture): IC50 double mutant versus wild-type; for Effect of I54M-L90M double mutation on IC50 in cell culture, in words: double mutant versus wild-type vector.

A further test has as its system wild-type HIV-2 vectors. The experiment in a line: Cell culture inhibition profiling, wild-type HIV-2 vector. The note with it: transfected 293T cells, 3 days, RT activity in medium, triplicate, mean ± SD. Format: cell-based.
Where [4] appears, read: HPLC, oligopeptide substrate, pH 5.6, 37 °C 1 h, triplicate, mean ± SD, read-out: IC50 Wild-Type.
The mark [5] stands for this setting: calculated from IC50 by Ki = (IC50 − E/2)/(S/Km + 1), mean ± SD, read-out: Ki Wild-Type.
Setting [6] is: Human immunodeficiency virus 2, HEK-293T, 72 h.

Chain of wild-type HIV-2 protease (P04584 514-612 limits assumed): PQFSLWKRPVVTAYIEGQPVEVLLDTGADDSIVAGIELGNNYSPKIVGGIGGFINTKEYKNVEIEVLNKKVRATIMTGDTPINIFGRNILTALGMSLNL

As for `CC(C)(C)NC(=O)[C@@H]1C[C@@H]2CCCC[C@@H]2CN1C[C@@H](O)[C@H](Cc1ccccc1)NC(=O)[C@H](CC(N)=O)NC(=O)c1ccc2ccccc2n1` [Saquinavir], the IC50 at wild-type HIV-2 protease (setting [4]) was found to be 3.42 ± 0.1 nM; in test [1], 14.1 ± 1.7 nM; in test [3] (setting [6]) it was 3500 ± 1200 nM. Also, the Ki at wild-type HIV-2 protease (setting [5]) was 0.09 ± 0.001 nM. Moreover, the “Fold Increase (Ki)” value in test [2] is 21.4 fold; in test [2] (listed as saquinavir) it was more than 20 fold. Besides, the “Fold Increase (IC50, cell culture)” value in test [3] was found to be 2.7 fold. Further, the “Effect of I54M-L90M double mutation on IC50 in cell culture, in words” value (from here on “Effect of I54M-L90M double mutation”) in test [3] is “significant IC50 increase”.

In the case of `CC(C)(C)NC(=O)[C@@H]1CN(Cc2cccnc2)CCN1C[C@@H](O)C[C@@H](Cc1ccccc1)C(=O)N[C@H]1c2ccccc2C[C@H]1O` [Indinavir], the values for the IC50 (on wild-type HIV-2 protease (setting [4]); in test [1]) were 1.3 ± 0.5 nM and 2.6 ± 1.4 nM, respectively. Besides, the “Fold Increase (Ki)” value in test [2] is given as 12 fold.

On to `CC(C)c1nc(CN(C)C(=O)N[C@H](C(=O)N[C@@H](Cc2ccccc2)C[C@H](O)[C@H](Cc2ccccc2)NC(=O)OCc2cncs2)C(C)C)cs1` [Ritonavir], for which, in test [3] (setting [6]), the IC50 came out at 14500 ± 300 nM.

Take `CC(C)CN(C[C@@H](O)[C@H](Cc1ccccc1)NC(=O)O[C@H]1CO[C@H]2OCC[C@H]21)S(=O)(=O)c1ccc(N)cc1` [Darunavir]: the IC50 worked out at 1.76 ± 0.1 nM against wild-type HIV-2 protease, 8.14 ± 1.3 nM in test [1] and 18700 ± 1600 nM in test [3] (setting [6]). In addition, at wild-type HIV-2 protease (Ki Wild-Type, calculated from IC50 by Ki = (IC50 − E/2)/(S/Km + 1), mean ± SD), the Ki is 0.05 ± 0.005 nM. In addition, the “Fold Increase (Ki)” value in test [2] was 22.2 fold; in test [2] (listed as darunavir), more than 20 fold. The “Fold Increase (IC50, cell culture)” value in test [3] was 44.5 fold; in test [3] (listed as darunavir) it was more than 40 fold.

In the case of `Cc1cccc(C)c1OCC(=O)N[C@@H](Cc1ccccc1)[C@@H](O)C[C@H](Cc1ccccc1)NC(=O)[C@H](C(C)C)N1CCCNC1=O` [Lopinavir], the IC50 at wild-type HIV-2 protease (setting [4]) amounted to 1.18 ± 0.1 nM; in test [1], 2.32 ± 0.1 nM; in test [3] (setting [6]) it was 3100 ± 1100 nM. On wild-type HIV-2 protease (setting [5]), the Ki is 0.03 ± 0.001 nM. Also, the “Fold Increase (Ki)” value in test [2] is 10.6 fold; in test [2] (listed as lopinavir) it was “more than 10 fold”. In addition, the “Fold Increase (IC50, cell culture)” value is listed as 20.6 fold in test [3] and more than 20 fold in test [3] (listed as lopinavir).

With `Cc1c(O)cccc1C(=O)N[C@@H](CSc1ccccc1)[C@H](O)CN1C[C@H]2CCCC[C@H]2C[C@H]1C(=O)NC(C)(C)C` [Nelfinavir], the IC50 came out at 38 ± 10 nM at wild-type HIV-2 protease (setting [4]), 190 ± 14.5 nM in test [1] and 5100 ± 1700 nM in test [3] (setting [6]). In addition, the Ki at wild-type HIV-2 protease (setting [5]) was 1 nM and 1.01 nM. Besides, the “Fold Increase (Ki)” value in test [2] is given as 26 fold; in test [2] (listed as nelfinavir) it was more than 20 fold. Moreover, in test [3], the “Fold Increase (IC50, cell culture)” value is 1.8 fold. Besides, the “Effect of I54M-L90M double mutation” value in test [3] is on record as “significant IC50 increase”.

Turning to `CC(C)CN(C[C@@H](O)[C@H](Cc1ccccc1)NC(=O)O[C@H]1CCOC1)S(=O)(=O)c1ccc(N)cc1` [Amprenavir], the values for the IC50 in test [1] and in test [3] (setting [6]) were 152 ± 9 nM and more than 100000 nM, respectively.

In the case of `COC(=O)N[C@H](C(=O)N[C@@H](Cc1ccccc1)[C@@H](O)CN(Cc1ccc(-c2ccccn2)cc1)NC(=O)[C@@H](NC(=O)OC)C(C)(C)C)C(C)(C)C` [Atazanavir], the IC50 was found to be 3.34 ± 1 nM on wild-type HIV-2 protease (setting [4]) and 10.9 ± 0.2 nM in test [1]. Further, on wild-type HIV-2 protease (setting [5]), the Ki was 0.09 ± 0.03 nM. Moreover, the “Fold Increase (Ki)” value in test [2] is recorded as 16.6 fold.

`CCC[C@@]1(CCc2ccccc2)CC(O)=C([C@H](CC)c2cccc(NS(=O)(=O)c3ccc(C(F)(F)F)cn3)c2)C(=O)O1` [Tipranavir]: the IC50 on wild-type HIV-2 protease (setting [4]) amounted to 50 ± 2 nM; in test [1] it was 4.8 ± 1.6 nM; in test [3] (setting [6]), 5800 ± 1700 nM. Moreover, on wild-type HIV-2 protease (setting [5]), the Ki was 1.3 nM and 1.31 nM. Moreover, the “Fold Increase (Ki)” value in test [2] came to 0.5 fold. Besides, the “Effect of I54M, L90M double mutation on inhibitor efficacy (enzymatic), in words” value in test [2] (double mutant versus wild-type protease) is recorded as “remained indifferent to the mutations; also recorded: did not observe a significant increase in Ki”. In test [3], the “Fold Increase (IC50, cell culture)” value worked out at 1.5 fold. For the same molecule, the “Effect of I54M-L90M double mutation” value in test [3] was “did not have an effect”.

Take `COC(=O)N[C@H](C(=O)N[C@@H](Cc1ccccc1)[C@@H](O)CN(Cc1ccc(-c2ccccn2)cc1)NC(=O)[C@@H](NC(=O)OC)C(C)(C)C)C(C)(C)C.O=S(=O)(O)O` [Atazanavir sulfate, atazanavir sulfate]: the Ki on wild-type HIV-2 protease (wild-type protease, read-out: Ki Wild-Type (as printed in text in μM)) was 0.09 ± 0.03 nM. Further, the “Fold Increase (Ki)” value in test [2] is on record as “more than 10 fold”. Also, the IC50 with wild-type HIV-2 vectors came to 5900 ± 500 nM. Besides, in test [3], the “Fold Increase (IC50, cell culture)” value was 4.8 fold; the “Effect of I54M-L90M double mutation” value was “significant IC50 increase”; the IC50 stood at 28600 ± 350 nM.

Consider `CC(C)(C)NC(=O)[C@@H]1CN(Cc2cccnc2)CCN1C[C@@H](O)C[C@@H](Cc1ccccc1)C(=O)N[C@H]1c2ccccc2C[C@H]1O` [Indinavir sulfate, indinavir sulfate], for which the Ki at wild-type HIV-2 protease (setting [5]) was 0.03 nM. For the same molecule, in test [2], the “Fold Increase (Ki)” value is on record as “more than 10 fold”. Moreover, the IC50 in test [3] (setting [6]) turned out to be 16500 ± 2100 nM. The “Fold Increase (IC50, cell culture)” value is given as 11.7 fold in test [3] and more than 10 fold in test [3] (listed as indinavir sulfate).
